# Measured values reported in patent US8829197B2, “Salts and polymorphs of desazadesferrithiocin polyether analogues as metal chelation agents” (FerroKin Biosciences, Inc., priority 2008, dated 2014).
# Where two headings read alike, the source gives them in different places.
# Tests used:
# [1] = Iron clearing efficiency in non-iron-overloaded, bile duct-cannulated rats (dose response po; po versus sc); assay type: in vivo, male Sprague-Dawley rats; conditions: mean ± SEM
# Description: Cebus apella monkeys were obtained from World Wide Primates (Miami, Fla.). Male Sprague-Dawley rats were procured from Harlan Sprague-Dawley (Indianapolis, Ind.). Ultrapure salts were obtained from Johnson Matthey Electronics (Royston, UK). All hematological and biochemical studies were performed by Antech Diagnostics (Tampa, Fla.).
# Cannulation of Bile Duct in Non-Iron-Overloaded Rats. The cannulation has been described previously in Bergeron, R J et al., Blood 1993, 81, 2166-2173 and Bergeron, R J et al., Ann. N.Y Acad.Sci. 1990, 612, 378-393. Bile samples were collected from male Sprague—Dawley rats (400-450 g) at 3 h intervals for 24 h. The urine sample was taken at 24 h. Sample collection and handling are as previously described. 57'58
# Drug Preparation and Administration. In the iron clearing experiments the rats were given a single 50, 150, or 300 mol/kg dose of the drugs po and/or sc. The compounds were administered as a solution in water, 300 mol/kg dose only or (2) as the monosodium salt of the compound of interest (prepared by addition of the free acid to 1 equivalent of NaOH). The chelators were given to the monkeys po and sc at a dose of 150 tmol/kg. The drugs were prepared as for the rats; 2 was given po and sc as a solution in water.
# Calculation of Iron Chelator Efficiency. ICE is calculated by dividing the actual amount of iron cleared by a given compound by the theoretical amount that should be cleared. The theoretical iron outputs of the chelators were generated on the basis of a 2:1 ligand:iron complex. The efficiencies in the rats and monkeys were calculated as set forth in Bergeron, R J et al., J. Med. Chem. 1999, 42, 2432-2440. Data are presented as the mean+the standard error of the mean; p-values were generated via a one-tailed Student's 1-test in which the inequality of variances was assumed; and a p-value of <0.05 was considered significant.
# Chelator-Induced Iron Clearance and Iron Clearing Efficiency in Non-Iron-Overloaded Rodents Dose Response Studies. Because there is a limited amount of chelatable iron available in an animal at any given time, the iron clearance, and therefore iron-clearing efficiency of a ligand, is saturable. The key to managing this phenomenon can be found in the ferrokinetics and the dose-response properties of the ligand. In this regard, the dose-response along with the corresponding ferrokinetics of each compound given po were evaluated in the non-iron-overloaded, bile duct-cannulated rodent model.
# Iron-Clearing Efficiency in Non-Iron-Overloaded Rodents and Iron-Loaded Primates: Oral versus Subcutaneous Administration. A similar protocol was carried out to confirm consistence of results and compare the effects of the compounds across species. Cebus apella monkeys and male Sprague-Dawley rats were used, 3-8 per group.
# [2] = iron-loaded Cebus apella, mean ± SEM, cited from earlier work
# [3] = non-iron-overloaded rats, mean ± SEM, cited from earlier work
SMILES,Iron-Clearing Efficiency (%) ([1]; dose 50 μmol/kg),Iron-Clearing Efficiency (%) ([1]; dose 150 μmol/kg),Iron-Clearing Efficiency (%) ([1]; dose 300 μmol/kg),Primate ICE @ 150 μmol/kg ([2]; po),Primate ICE @ 150 μmol/kg ([2]; sc),Rodent ICE @ 300 μmol/kg ([3]; po),Rodent ICE @ 300 μmol/kg ([3]; sc)
"COCCOCCOCCOc1cccc(C2=N[C@@](C)(C(=O)O)CS2)c1O [(S)-3′-HO-DADFT, (S)-4,5-dihydro-2-[2-hydroxy-3-(3,6,9-trioxadecyloxy)phenyl]-4-methyl-4-thiazolecarboxylic acid]",20.7 ± 4.4%,18.7 ± 2.9%,10.6 ± 4.4%,23.0 ± 4.1%,21.5 ± 3.2%,10.6 ± 4.4%,13.4 ± 4.5%
C[C@]1(C(=O)O)CSC(c2ccc(O)cc2O)=N1 [(S)-4′-HO-DADFT],21.7 ± 3.5%,11.2 ± 4.2%,5.5 ± 1.9%,,30.4 ± 7.2%,5.5 ± 1.9%,8.7 ± 2.6%
"C[C@]1(C(=O)O)CSC(c2ccc(O)cc2O)=N1 [Deferitrin, (S)-2-(2,4-dihydroxyphenyl)-4,5dihydro-4-methyl-4-thiazolecarboxylic acid, reference compound]",,1.5 + 1.7%,1.1 ± 0.8%,16.8 ± 7.2%,15.9 ± 2.7%,1.1 ± 0.8%,1.1 ± 0.6%
